Data as given in patent EP4722203A1, “3,4-DIHYDROPHTHALAZIN-1(2H)-ONE DERIVATIVE, AND PREPARATION METHOD THEREFOR AND USE THEREOF” (Academy of Military Medical Sciences, priority 2023, dated 2024).

Experiments:
[1] = tested on: human multiple myeloma NCI-H929 xenograft tumors; test: In vivo antitumor activity against NCI-H929 transplanted tumors; parameters: species or system NOD/SCID mice; conditions: QD; for growth of NCI-H929 transplanted tumors (in words): 3 mg/kg and 10 mg/kg; for Tumor inhibition rate TGI (%) / Average volume (mm^3) (Day 10) / Initial volume (mm^3): oral gavage; for Tumor inhibition rate TGI (%): 10 consecutive days; for Initial volume (mm^3): baseline
Procedure: In this example, the human multiple myeloma NCI-H929 cell line was used as the cell model. The inhibitory effects of compounds on the growth of NOD/SCID mouse transplanted tumors of NCI-H929 tumor cells were determined. The evaluation methods and results are described below.
Human multiple myeloma NCI-H929 cells were routinely cultured in RPMI1640 containing 10% fetal bovine serum at 37°C in a 5% CO2 incubator. After three passages in vitro, when the cells reached over 80% confluence and the required confluence rate, the cells were digested and harvested. After washing with PBS, the cells were counted and the cell concentration was adjusted to approximately 5 × 10^7 cells/mL. The cells were then placed in 4 mL centrifuge tubes on ice for later use.
Female NOD/SCID mice aged 4-5 weeks were selected and subcutaneously inoculated with NCI-H929 cells ectopically. The mice were held in a lateral position, the forelimb axilla was disinfected with 75% alcohol, and 100 µL of the cell suspension was injected subcutaneously into the axilla using a 1 mL syringe ([…]/100 µL).
After the tumors grew to 90-150 mm^3, the animals were randomly divided into groups, 8 mice in each group, and administered according to different administration methods as follows: • Model control group: Administered with the same volume of Vehicle (DMSO: 0.5% sodium carboxymethyl cellulose: distilled water = 1:1:8) daily by gavage; • Control drug group 1: administered with pomalidomide solution at 10 mg/kg (mouse body weight) daily by gavage; • Control drug group 2: administered with CC-220 solution at 3 mg/kg (mouse body weight) daily by gavage; • Control drug group 3: administered with CC-220 solution at 10 mg/kg (mouse body weight) daily by gavage; • Experimental compound group 4: administered with compound I-4 solution at 3 mg/kg (mouse body weight) daily by gavage; • Experimental compound group 5: administered with compound I-4 solution at 10 mg/kg (mouse body weight) daily by gavage; • Experimental compound group 6: administered with compound I-8 solution at 3 mg/kg (mouse body weight) daily by gavage; • Experimental compound group 7: administered with compound I-8 solution at 10 mg/kg (mouse body weight) daily by gavage;
The route of administration was oral gavage, and the administration frequency was once daily, for 10 consecutive days. The first day of administration was defined as Day 1 of the experiment. Tumor volume changes in mice were measured and recorded every two days. Tumor volume was measured using a vernier caliper, in which the major axis (a) and minor axis (b) of the tumor were measured, and the tumor volume was calculated as tumor volume V (mm^3) = a x b^2/2. After the experiment, the mice were dissected and the tumor weight was measured. The data were entered and statistically analyzed using GraphPad Prism 6 software. The data are expressed as mean ± SEM (Standard Error of Mean), and one-way ANOVA was used. P ≤ 0.05 was considered statistically significant.

[2] = tested on: RPMI-8226-Lenalidomide-R cells; test: Antiproliferative activity against resistant cells, CCK-8 assay; assay type: cell-based; conditions: Homo sapiens, 144 hours incubation
Procedure: (§1) In this example, lenalidomide-resistant human multiple myeloma cells, including NCI-H929 (NCI-H929-Lenalidomide-R) and RPMI-8226 (RPMI-8226-Lenalidomide-R), and pomalidomide-resistant human multiple myeloma cells, including NCI-H929 (NCI-H929-pomalidomide-R) and RPMI-8226 (RPMI-8226-pomalidomide-R), were selected as cell models to determine the inhibitory activity of compound I-8 of the present invention against the proliferation of the resistant cells.
(§2) • ① I-8 was dissolved in DMSO to prepare a 10 mM stock solution. Compounds used within three months should be stored at room temperature in a desiccator; others could be stored at -20°C for long-term storage. • ② The I-8 stock solution and the reference compounds lenalidomide and pomalidomide were all diluted with DMSO. Their initial concentrations were 10 µM. In the experiments of lenalidomide-resistant human multiple myeloma cells (NCI-H929 (NCI-H929-Lenalidomide-R) and RPMI-8226 (RPMI-8226-Lenalidomide-R) and pomalidomide-resistant human multiple myeloma cells (NCI-H929 (NCI-H929-pomalidomide-R) and RPMI-8226 (RPMI-8226-pomalidomide-R), 3-fold serial dilution with 11 concentration points was performed, with the lowest concentration of […]. The resulting solutions were shaken on a shaker for 5 minutes.
(§3) • ① The NCI-H929-Lenalidomide-R, RPMI-8226-Lenalidomide-R, NCI-H929-pomalidomide-R, and RPMI-8226-pomalidomide-R cells in logarithmic growth phase were inoculated in a 96-well plate, 20,000 to 30,000 cells per well, and the plate was pre-cultured for 24 hours in an incubator (at 37°C and 5% CO2). • ® The culture medium in the plate was replaced, and the compounds and the positive controls with corresponding concentrations were added to the plated at a volume of 50 µL. • ③ The plate was incubated for 144 hours in an incubator, then 15 µL of CCK-8 solution was added to each well, and the plate was incubated in the incubator for another 1-4 hours. • ④ The absorbance at 450 nm was measured using a microplate reader.
(§4) • ① Calculating % Inhibition: [formula] • ② Calculating IC50 value of compound and plotting dose-response curve: The IC50 value was calculated by fitting the % Inhibition and the logarithm of compound concentration to a nonlinear regression (dose response-variable slope) by using GraphPad 6.0. Y = Bottom + (Top−Bottom)/(1+10^(∧)((LogIC50−X)*HillSlope)) [formula] X: log of inhibitor concentration; Y: % Inhibition.
(§5) After calculating % Inhibition, a dose-response curve was plotted with the logarithm of the test compound concentration as the x-axis and the average cell viability as the y-axis, and the IC50 value was obtained by fitting.

[3] = tested on: RPMI-8226-pomalidomide-R cells; test: as above; assay type: cell-based; conditions: Homo sapiens, 144 hours incubation
Procedure: as §1, §2, §3, §4, §5

[4] = tested on: NCI-H929-pomalidomide-R cells; test: as above; assay type: cell-based; conditions: Homo sapiens, 144 hours incubation
Procedure: as §1, §2, §3, §4, §5

[5] = tested on: NCI-H929-Lenalidomide-R cells; test: as above; assay type: cell-based; conditions: Homo sapiens, 144 hours incubation
Procedure: as §1, §2, §3, §4, §5

SMILES	growth of NCI-H929 transplanted tumors (in words) [1]	Tumor inhibition rate TGI (%) ([1]; 3 mg/kg)	Average volume (mm^3) (Day 10) ([1]; 3 mg/kg)	Initial volume (mm^3) ([1]; 3 mg/kg)	Tumor inhibition rate TGI (%) ([1]; 10 mg/kg)	Average volume (mm^3) (Day 10) ([1]; 10 mg/kg)	Initial volume (mm^3) ([1]; 10 mg/kg)	IC50 [2] [µM]	IC50 [3] [µM]	IC50 [4] [µM]	IC50 [5] [µM]
CN1Cc2c(NCc3ccc(CN4CCN(c5ccc(C#N)c(F)c5)CC4)cc3)cccc2C(=O)N1C1CCC(=O)NC1=O (stereo not shown) [I-8]	significantly inhibited the growth	84.25	500.1	193.5	100.72	197.3	211.3	0.246	0.314	0.095	0.055
CN1Cc2c(N)cccc2C(=O)N1C1CCC(=O)NC1=O (stereo not shown) [I-4, 3-(5-amino-3-methyl-1-oxo-3,4-dihydrophthalazin-2(1H)-yl)piperidin-2,6-dione]	significantly inhibited the growth	66.53	843.1	191.6	92.82	344.5	204.8				
Nc1cccc2c1C(=O)N(C1CCC(=O)NC1=O)C2=O (stereo not shown) [Pomalidomide, reference compound]					80.09	573.1	185.6	> 100	> 100	> 100	> 100
